This note sets out measurements from patent publication US8828985B2, “Carbamate and urea inhibitors of 11-beta-hydroxysteroid dehydrogenase 1” (Vitae Pharmaceuticals, Inc., priority 2008, dated 2014).

Like-named read-outs stand apart in the source and are kept apart here.

Usually IC50 stands for the midpoint of a concentration-inhibition curve. The inhibition is the share of the control response that was lost under treatment.

Experiment [1] addresses T1, human 11β-HSD1 (Homo sapiens, UniProt P28845). The experiment is described as follows: biochemical. The following applies: for IC50: Biological Test Example 2 IC50 Range, microsomes from CHO cells overexpressing human 11β-HSD1, SPA.
Description: (§1) All reactions are carried out at room temperature in 96 well clear flexible PET Microbeta plates (PerkinElmer). […] The reaction is stopped by adding 50 μl of the SPA beads suspension containing 10 μM 18β-glycyrrhetinic acid, 5 mg/ml protein A coated YSi SPA beads (GE Healthcare) and 3.3 μg/ml of anti-cortisol antibody (East Coast Biologics) in Superblock buffer (Bio-Rad). The plates are then shaken for 120 minutes at room temperature, and the SPA signal corresponding to [^3H]cortisol is measured on a Microbeta plate reader.
The target of experiment [2] is T1, human 11β-HSD1. The following applies: for IC50: read-out: Biological Test Example 2 IC50 Range, microsomes from CHO cells overexpressing human 11β-HSD1, SPA.
Description: as §1
Setting [3] is: 1.5 h, read-out: Biological Test Example 2 Average % inhibition at 100 nm, at 100 nm.

T1 sequence (P28845 whole entry): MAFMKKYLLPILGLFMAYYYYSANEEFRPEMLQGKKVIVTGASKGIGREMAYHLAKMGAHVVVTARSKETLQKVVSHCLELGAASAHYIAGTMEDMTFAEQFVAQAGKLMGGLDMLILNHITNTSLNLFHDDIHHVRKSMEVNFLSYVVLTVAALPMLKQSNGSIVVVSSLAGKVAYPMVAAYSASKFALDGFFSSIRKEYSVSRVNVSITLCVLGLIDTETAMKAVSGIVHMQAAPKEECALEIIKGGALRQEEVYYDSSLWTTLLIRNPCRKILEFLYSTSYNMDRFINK

On to `CC(C)OC(=O)N[C@@H]1CCN(C(=O)OC2C3CC4CC2CC(C(N)=O)(C4)C3)C1` (single isomer, unassigned) [Example 24 Isomer 2], for which the IC50 at human 11β-HSD1 [1] is < 100 nM. Besides, the “Biological Test Example 2 Average % inhibition at 100 nm” value at human 11β-HSD1 [2] was determined as 87.4%.

On to `NC(=O)C12CC3CC(C1)C(OC(=O)N1CC[C@@H](NC(=O)OCc4ccccc4)C1)C(C3)C2` (single isomer, unassigned) [Example 25 Isomer 2], for which the IC50 at human 11β-HSD1 [1] was < 100 nM. Moreover, the “Biological Test Example 2 Average % inhibition at 100 nm” value on human 11β-HSD1 [2] was determined as 91.3%.

As to `CNC(=O)C12CC3CC(C1)C(OC(=O)N1CC[C@@H](Nc4ccc(C#N)cn4)C1)C(C3)C2` (single isomer, unassigned) [Example 114 Isomer 1], the IC50 on human 11β-HSD1 [1] was > 100 nM. The “Biological Test Example 2 Average % inhibition at 100 nm” value at human 11β-HSD1 [2] worked out at 11.8%.

With `CC(C)(C)OC(=O)NC1(Cc2ccccc2)CCN(C(=O)OC2C3CC4CC2CC(C(N)=O)(C4)C3)C1` (single isomer, unassigned) [Example 29 Isomer 1, (cis-1-carbamoyl-4-adamantyl) 3-benzyl-3-(tert-butoxycarbonylamino)pyrrolidine-1-carboxylate], the IC50 at human 11β-HSD1 [1] was > 100 nM. Also, the “Biological Test Example 2 Average % inhibition at 100 nm” value on human 11β-HSD1 [2] turned out to be 41.2%.

For the molecule `CC(C)(C)OC(=O)N1CCC2CN(C(=O)OC3C4CC5CC3CC(C(N)=O)(C5)C4)CC21` (single isomer, unassigned) [Example 23 Isomer 1, 1-tert-butyl 5-(cis-1-carbamoyl-4-adamantyl)hexahydropyrrolo[3,4-b]pyrrole-1,5-dicarboxylate], the IC50 against human 11β-HSD1 [1] was > 100 nM. Moreover, the “Biological Test Example 2 Average % inhibition at 100 nm” value on human 11β-HSD1 [2] is reported as 35.4%.

Regarding `CC1(NC(=O)OC(C)(C)C)CCN(C(=O)OC2C3CC4CC2CC(C(N)=O)(C4)C3)C1` (single isomer, unassigned) [Example 22 Isomer 2.1, (trans-1-carbamoyl-4-adamantyl) 3-(tert-butoxycarbonylamino)-3-methylpyrrolidine-1-carboxylate], the IC50 against human 11β-HSD1 [1] is < 100 nM. Further, the “Biological Test Example 2 Average % inhibition at 100 nm” value on human 11β-HSD1 [2] stood at 88.5%.

As for `NC(=O)C12CC3CC(C1)C(OC(=O)N1CC[C@@H](Nc4ncccn4)C1)C(C3)C2` (single isomer, unassigned) [Example 62 Isomer 1], the IC50 on human 11β-HSD1 [1] is < 100 nM. Further, the “Biological Test Example 2 Average % inhibition at 100 nm” value on human 11β-HSD1 [2] is recorded as 40.8%.

As for `CC(C)(C)OC(=O)NC1(Cc2ccccc2)CCN(C(=O)OC2C3CC4CC2CC(C(N)=O)(C4)C3)C1` (single isomer, unassigned) [Example 29 Isomer 2.1, (trans-1-carbamoyl-4-adamantyl) 3-benzyl-3-(tert-butoxycarbonylamino)pyrrolidine-1-carboxylate], on human 11β-HSD1 [1], the IC50 was < 100 nM. Also, on human 11β-HSD1 [2], the “Biological Test Example 2 Average % inhibition at 100 nm” value is given as 96.9%.

With `NC(=O)C12CC3CC(C1)C(OC(=O)N1CC[C@@H](Nc4ncccn4)C1)C(C3)C2` (single isomer, unassigned) [Example 62 Isomer 2], at human 11β-HSD1 [2], the “Biological Test Example 2 Average % inhibition at 100 nm” value worked out at 78.7% and the IC50 was < 100 nM.

As to `N#Cc1ccc(N[C@@H]2CCN(C(=O)NC3CC4CCC(C3)N4C(N)=O)C2)nc1` (single isomer, unassigned) [Example 104 Isomer 1], at human 11β-HSD1 [2], the “Biological Test Example 2 Average % inhibition at 111 nm” value was −6.2% and the IC50 is > 1000 nM.

Turning to `NC(=O)C12CC3CC(C1)C(OC(=O)N1CC[C@@H](NC(=O)OCc4ccccc4)C1)C(C3)C2` (single isomer, unassigned) [Example 25 Isomer 1], the IC50 against human 11β-HSD1 [1] is > 100 nM. Moreover, the “Biological Test Example 2 Average % inhibition at 100 nm” value on human 11β-HSD1 [2] was found to be 45.6%.

With `CC(C)OC(=O)N[C@@H]1CCN(C(=O)OC2C3CC4CC2CC(C(N)=O)(C4)C3)C1` (single isomer, unassigned) [Example 24 Isomer 1], on human 11β-HSD1 [1], the IC50 was > 100 nM. Besides, on human 11β-HSD1 [2], the “Biological Test Example 2 Average % inhibition at 100 nm” value was 2.0%.

In the case of `N#Cc1ccc(N[C@@H]2CCN(C(=O)OC3C4CC5CC3CC(C(=O)NC3CCCCC3)(C5)C4)C2)nc1` (single isomer, unassigned) [Example 117 Isomer 1], at human 11β-HSD1 [1], the IC50 was > 100 nM. For the same molecule, the “Biological Test Example 2 Average % inhibition at 100 nm” value on human 11β-HSD1 [2] was 17.85%.

As for `CC(C)(C)OC(=O)NC1(Cc2ccccc2)CCN(C(=O)OC2C3CC4CC2CC(C(N)=O)(C4)C3)C1` (single isomer, unassigned) [Example 29 Isomer 2.2, (trans-1-carbamoyl-4-adamantyl) 3-benzyl-3-(tert-butoxycarbonylamino)pyrrolidine-1-carboxylate], the IC50 against human 11β-HSD1 [1] is < 100 nM. The “Biological Test Example 2 Average % inhibition at 100 nm” value at human 11β-HSD1 [2] was found to be 89.3%.

`CC(C)(C)OC(=O)N1CCC2CN(C(=O)OC3C4CC5CC3CC(C(N)=O)(C5)C4)CC21` (single isomer, unassigned) [Example 23 Isomer 2, 1-tert-butyl 5-(trans-1-carbamoyl-4-adamantyl)hexahydropyrrolo[3,4-b]pyrrole-1,5-dicarboxylate]: the IC50 against human 11β-HSD1 [1] is < 100 nM. The “Biological Test Example 2 Average % inhibition at 100 nm” value on human 11β-HSD1 [2] is on record as 94.4%.

On to `CC(C)COC(=O)NC1CCN(C(=O)OC2C3CC4CC2CC(C(N)=O)(C4)C3)C1` (single isomer, unassigned) [Example 18 Isomer 1, (cis-1-carbamoyl-4-adamantyl) (3R-(isobutoxycarbonylamino)pyrrolidine-1-carboxylate)], for which, on human 11β-HSD1 [1], the IC50 was > 100 nM. The “Biological Test Example 2 Average % inhibition at 100 nm” value at human 11β-HSD1 [2] is listed as 22.6%.

Regarding `CC(C)COC(=O)NC1CCN(C(=O)OC2C3CC4CC2CC(C(N)=O)(C4)C3)C1` (single isomer, unassigned) [Example 18 Isomer 2, (trans-1-carbamoyl-4-adamantyl) (3R-(isobutoxycarbonylamino)pyrrolidine-1-carboxylate)], the IC50 against human 11β-HSD1 [1] was < 100 nM. Moreover, the “Biological Test Example 2 Average % inhibition at 100 nm” value at human 11β-HSD1 [2] worked out at 95.0%.

As to `N#Cc1ccc(N[C@@H]2CCN(C(=O)OC3C4CC5CC3CC(C(=O)NC3CC3)(C5)C4)C2)nc1` (single isomer, unassigned) [Example 118 Isomer 2], at human 11β-HSD1 [2], the “Biological Test Example 2 Average % inhibition at 100 nm” value was determined as 7.15% and the IC50 is > 100 nM.

As for `CNC(=O)C12CC3CC(C1)C(OC(=O)N1CC[C@@H](Nc4ccc(C#N)cn4)C1)C(C3)C2` (single isomer, unassigned) [Example 114 Isomer 2], the IC50 at human 11β-HSD1 [1] was < 100 nM. The “Biological Test Example 2 Average % inhibition at 100 nm” value at human 11β-HSD1 [2] came out at 58.4%.

As for `CC(C)(C)OC(=O)N1CCCC12CCN(C(=O)OC1C3CC4CC1CC(C(N)=O)(C4)C3)C2` (single isomer, unassigned) [Example 30 Isomer 1, 1-tert-butyl 7-(cis-1-carbamoyl-4-adamantyl) 1,7-diazaspiro[4.4]nonane-1,7-dicarboxylate], the IC50 against human 11β-HSD1 [1] is > 100 nM. Also, the “Biological Test Example 2 Average % inhibition at 100 nm” value on human 11β-HSD1 [2] is reported as 15.9%.

With `N#Cc1ccc(N[C@@H]2CCN(C(=O)NC3CC4CCC(C3)N4C(N)=O)C2)nc1` (single isomer, unassigned) [Example 104 Isomer 2], at human 11β-HSD1 [2], the “Biological Test Example 2 Average % inhibition at 111 nm” value is on record as −6.1% and the IC50 is > 1000 nM.

Regarding `COC(=O)C12CC3CC(C1)C(OC(=O)N1CC[C@@H](Nc4ncccc4C#N)C1)C(C3)C2` (stereo partly drawn) [Example 70, (R)-(1-(methoxycarbonyl)-4-adamantyl) 3-(3-cyanopyridin-2-ylamino)pyrrolidine-1-carboxylate], on human 11β-HSD1 [1] (setting [3]), the inhibition at 0.1 µM worked out at 78.4%. Moreover, the IC50 on human 11β-HSD1 [1] is < 100 nM.

`Cc1nccc2nc(N[C@@H]3CCN(C(=O)O[C@H]4C5CC6CC4C[C@](O)(C6)C5)C3)ccc12` [Example 88, (R)-(trans-1-hydroxy-4-adamantyl) 3-(5-methyl-1,6-naphthyridin-2-ylamino)pyrrolidine-1-carboxylate]: the inhibition at 0.1 µM on human 11β-HSD1 [1] (setting [3]) is 69.4%. Moreover, on human 11β-HSD1 [1], the IC50 is < 100 nM.

`CC1(NC(=O)OC(C)(C)C)CCN(C(=O)OC2C3CC4CC2CC(C(N)=O)(C4)C3)C1` (single isomer, unassigned) [Example 22 Isomer 2, (trans-1-carbamoyl-4-adamantyl) 3-(tert-butoxycarbonylamino)-3-methylpyrrolidine-1-carboxylate]: the IC50 at human 11β-HSD1 [1] was < 100 nM. In addition, the “Biological Test Example 2 Average % inhibition at 100 nm” value at human 11β-HSD1 [2] turned out to be 95.5%.

Regarding `O=C(O[C@H]1C2CC3CC1C[C@](O)(C3)C2)N1CC[C@@H](Nc2ncc(Cl)cc2[N+](=O)[O-])C1` [Example 93, (R)-(trans-1-hydroxy-4-adamantyl) 3-(5-chloro-3-nitropyridin-2-ylamino)pyrrolidine-1-carboxylate], on human 11β-HSD1 [1], the IC50 is < 100 nM.

Turning to `N#Cc1cccnc1NC1CCN(C(=O)O[C@H]2C3CC4CC2C[C@](C(N)=O)(C4)C3)CC1` [Example 68, (1-carbamoyl-4-adamantyl) 4-(3-cyanopyridin-2-ylamino)piperidine-1-carboxylate], on human 11β-HSD1 [1] (setting [3]), the inhibition at 0.1 µM is 90.7%. Besides, at human 11β-HSD1 [1], the IC50 is < 100 nM.

`N#Cc1ccc(N[C@@H]2CCN(C(=O)NC3C4CC5CC(C4)CC3C5)C2)nc1` (stereo partly drawn) [Example 61, (R)-3-(5-cyanopyridin-2-ylamino)-N-(2-adamantyl)pyrrolidine-1-carboxamide]: at human 11β-HSD1 [1] (1.5 h, read-out: Biological Test Example 2 Average % inhibition at 100 nm), the inhibition at 0.1 µM was 97.6%. For the same molecule, the IC50 on human 11β-HSD1 [1] was < 100 nM.

For the molecule `CCOC(=O)C1(Nc2ccccc2)CCN(C(=O)NC2C3CC4CC(C3)CC2C4)CC1` (stereo not shown) [Example 59, Ethyl 1-(2-adamantylcarbamoyl)-4-(phenylamino)piperidine-4-carboxylate], on human 11β-HSD1 [1] (1.5 h, read-out: Biological Test Example 2 Average % inhibition at 111 nm), the inhibition at 0.111 µM was determined as 47.5%. Besides, the 50% inhibitory concentration (IC50) against human 11β-HSD1 [1] lay in the range of 100 to 1000 nM.

As to `Cc1nc(N[C@@H]2CCN(C(=O)O[C@H]3C4CC5CC3C[C@](O)(C5)C4)C2)ccc1C#N` [Example 84, (R)-(trans-1-hydroxy-4-adamantyl) 3-(5-cyano-6-methylpyridin-2-ylamino)pyrrolidine-1-carboxylate], the inhibition at 0.1 µM on human 11β-HSD1 [1] (setting [3]) was 71.6%. The IC50 at human 11β-HSD1 [1] is < 100 nM.

Regarding `CC(C)(C)OC(=O)N1C[C@@H]2C[C@H]1CN2C(=O)OC1C2CC3CC(C2)CC1C3` (stereo partly drawn) [Example 7, (1S,4S)-2-tert-butyl 5-(2-adamantyl)-2,5-diazabicyclo[2.2.1]heptane-2,5-dicarboxylate], on human 11β-HSD1 [1], the IC50 was < 100 nM.
